Patent US12048709B2 (scPharmaceuticals Inc., priority 2019, dated 2024)
Read-outs that look alike come from different tables or passages of the source.

Tests used:
[1] = for Apparent pH: 2% Benzyl Alcohol
Method: (§1) Samples were tumbled for 48 hours at ambient conditions and protected from light.

[2] = not given; remark: listed apart in the source
[3] = Study 4
Method: as §1
A full factorial DOE study was performed to determine the optimal amounts of NMP, benzyl alcohol and buffer (tromethamine) required to produce the highest solubility. Any potential synergistic effects stemming from various excipient combinations were also investigated.

[4] = 200 mM Sodium Phosphate, target pH 6.0, t24 h
[5] = 200 mM Tromethamine/HCl, target pH 8.5, t2 h

Apparent pH ([1]; 100 mM Tromethamine pH 5.0, 25% NMP, t2 h): 5.0 | Apparent pH ([1]; 100 mM Tromethamine pH 5.0, 25% NMP, t24 h): 4.6 | Apparent pH ([1]; 100 mM Tromethamine pH 5.0, 25% NMP, t48 h): 5.1 | Apparent pH ([1]; 100 mM Tromethamine pH = 4.0, 25% NMP, t2 h): 3.9 | Apparent pH ([1]; 100 mM Tromethamine pH = 4.0, 25% NMP, t24 h): 3.6 | Apparent pH ([1]; 100 mM Tromethamine pH = 4.0, 25% NMP, t48 h): 4.7 | pH variability ([1]; Study 6, pH 4.0 test samples): 0.7 units | Osmolarity (200 mM Citrate, target pH 6.0, t2 h): 516 mOsm/kg | Osmolarity (200 mM Citrate, target pH 6.0, t24 h): 533 mOsm/kg | Osmolarity (200 mM Citrate, target pH 6.0, t48 h): 557 mOsm/kg | Osmolarity (200 mM Citrate, target pH 7.4, t2 h): 488 mOsm/kg | Osmolarity (200 mM Citrate, target pH 7.4, t24 h): 484 mOsm/kg | Osmolarity (200 mM Citrate, target pH 7.4, t48 h): 549 mOsm/kg | Osmolarity (200 mM Histidine/HCl, target pH 6.0, t2 h): 441 mOsm/kg | Osmolarity (200 mM Histidine/HCl, target pH 6.0, t24 h): 392 mOsm/kg | Osmolarity (200 mM Histidine/HCl, target pH 6.0, t48 h): 477 mOsm/kg | Osmolarity (200 mM Histidine/HCl, target pH 7.4, t2 h): 588 mOsm/kg | Osmolarity (200 mM Histidine/HCl, target pH 7.4, t24 h): 584 mOsm/kg | Osmolarity (200 mM Histidine/HCl, target pH 7.4, t48 h): 616 mOsm/kg | Osmolarity (200 mM Histidine/HCl, target pH 8.5, t2 h): 553 mOsm/kg | Osmolarity (200 mM Histidine/HCl, target pH 8.5, t24 h): 558 mOsm/kg | Osmolarity (200 mM Histidine/HCl, target pH 8.5, t48 h): 678 mOsm/kg | Osmolarity (200 mM Potassium Phosphate, target pH 6.0, t2 h): 384 mOsm/kg | Osmolarity (200 mM Potassium Phosphate, target pH 6.0, t24 h): 383 mOsm/kg | Osmolarity (200 mM Potassium Phosphate, target pH 6.0, t48 h): 376 mOsm/kg | Osmolarity (200 mM Potassium Phosphate, target pH 7.4, t2 h): 462 mOsm/kg | Osmolarity (200 mM Potassium Phosphate, target pH 7.4, t24 h): 471 mOsm/kg | Osmolarity (200 mM Potassium Phosphate, target pH 7.4, t48 h): 481 mOsm/kg | Osmolarity (200 mM Potassium Phosphate, target pH 8.5, t2 h): 487 mOsm/kg | Osmolarity (200 mM Potassium Phosphate, target pH 8.5, t24 h): 497 mOsm/kg | Osmolarity (200 mM Potassium Phosphate, target pH 8.5, t48 h): 423 mOsm/kg | Osmolarity (200 mM Sodium Phosphate, target pH 6.0, t2 h): 388 mOsm/kg | Apparent pH [4]: 5.1 | Osmolarity [4]: 399 mOsm/kg | Osmolarity (200 mM Sodium Phosphate, target pH 6.0, t48 h): 393 mOsm/kg | Osmolarity (200 mM Sodium Phosphate, target pH 7.4, t2 h): 330 mOsm/kg | Osmolarity (200 mM Sodium Phosphate, target pH 7.4, t24 h): 310 mOsm/kg | Osmolarity (200 mM Sodium Phosphate, target pH 7.4, t48 h): 310 mOsm/kg | Osmolarity (200 mM Sodium Phosphate, target pH 8.5, t2 h): 282 mOsm/kg | Osmolarity (200 mM Sodium Phosphate, target pH 8.5, t24 h): 267 mOsm/kg | Osmolarity (200 mM Sodium Phosphate, target pH 8.5, t48 h): 285 mOsm/kg | Osmolarity (200 mM Tromethamine, target pH 6.0, t2 h): 403 mOsm/kg | Osmolarity (200 mM Tromethamine, target pH 6.0, t24 h): 406 mOsm/kg | Osmolarity (200 mM Tromethamine, target pH 6.0, t48 h): 446 mOsm/kg | Osmolarity (200 mM Tromethamine, target pH 7.4, t2 h): 434 mOsm/kg | Osmolarity (200 mM Tromethamine, target pH 7.4, t24 h): 481 mOsm/kg | Osmolarity (200 mM Tromethamine, target pH 7.4, t48 h): 482 mOsm/kg | Osmolarity (200 mM Tromethamine, target pH 8.5, t2 h): 403 mOsm/kg | Osmolarity (200 mM Tromethamine, target pH 8.5, t24 h): 347 mOsm/kg | Osmolarity (200 mM Tromethamine, target pH 8.5, t48 h): 433 mOsm/kg | Osmolarity (200 mM Tromethamine/HCl, target pH 6.0, t2 h): 121 mOsm/kg | Osmolarity (200 mM Tromethamine/HCl, target pH 6.0, t24 h): 114 mOsm/kg | Osmolarity (200 mM Tromethamine/HCl, target pH 6.0, t48 h): 127 mOsm/kg | Osmolarity (200 mM Tromethamine/HCl, target pH 7.4, t2 h): 232 mOsm/kg | Osmolarity (200 mM Tromethamine/HCl, target pH 7.4, t24 h): 215 mOsm/kg | Osmolarity (200 mM Tromethamine/HCl, target pH 7.4, t48 h): 233 mOsm/kg | Apparent pH [5]: 8.8 | Osmolarity [5]: 177 mOsm/kg | Osmolarity (200 mM Tromethamine/HCl, target pH 8.5, t24 h): 257 mOsm/kg | Osmolarity (200 mM Tromethamine/HCl, target pH 8.5, t48 h): 252 mOsm/kg | Osmolarity ([2]; ~50 mM Potassium Phosphate, target pH 6.0, t2 h): 108 mOsm/Kg | Osmolarity ([2]; ~50 mM Potassium Phosphate, target pH 6.0, t24 h): 105 mOsm/Kg | Osmolarity ([2]; ~50 mM Potassium Phosphate, target pH 6.0, t48 h): 115 mOsm/Kg | Osmolarity ([2]; ~50 mM Potassium Phosphate, target pH 7.4, t2 h): 193 mOsm/Kg | Osmolarity ([2]; ~50 mM Potassium Phosphate, target pH 7.4, t24 h): 190 mOsm/Kg | Osmolarity ([2]; ~50 mM Potassium Phosphate, target pH 7.4, t48 h): 213 mOsm/Kg | Osmolarity ([2]; ~50 mM Potassium Phosphate, target pH 8.5, t2 h): 265 mOsm/Kg | Osmolarity ([2]; ~50 mM Potassium Phosphate, target pH 8.5, t24 h): 255 mOsm/Kg | Osmolarity ([2]; ~50 mM Potassium Phosphate, target pH 8.5, t48 h): 283 mOsm/Kg | Osmolarity ([2]; ~50 mM Sodium Phosphate, target pH 6.0, t2 h): 212 mOsm/Kg | Osmolarity ([2]; ~50 mM Sodium Phosphate, target pH 6.0, t24 h): 118 mOsm/Kg | Osmolarity ([2]; ~50 mM Sodium Phosphate, target pH 6.0, t48 h): 141 mOsm/Kg | Osmolarity ([2]; ~50 mM Sodium Phosphate, target pH 7.4, t2 h): 232 mOsm/Kg | Osmolarity ([2]; ~50 mM Sodium Phosphate, target pH 7.4, t24 h): 233 mOsm/Kg | Osmolarity ([2]; ~50 mM Sodium Phosphate, target pH 7.4, t48 h): 237 mOsm/Kg | Osmolarity ([2]; ~50 mM Sodium Phosphate, target pH 8.5, t2 h): 241 mOsm/Kg | Osmolarity ([2]; ~50 mM Sodium Phosphate, target pH 8.5, t24 h): 242 mOsm/Kg | Osmolarity ([2]; ~50 mM Sodium Phosphate, target pH 8.5, t48 h): 276 mOsm/Kg | Osmolarity ([2]; ~50 mM Tromethamine/HCl, target pH 6.0, t2 h): 124 mOsm/Kg | Osmolarity ([2]; ~50 mM Tromethamine/HCl, target pH 6.0, t24 h): 129 mOsm/Kg | Osmolarity ([2]; ~50 mM Tromethamine/HCl, target pH 6.0, t48 h): 133 mOsm/Kg | Osmolarity ([2]; ~50 mM Tromethamine/HCl, target pH 7.4, t2 h): 165 mOsm/Kg | Osmolarity ([2]; ~50 mM Tromethamine/HCl, target pH 7.4, t24 h): 181 mOsm/Kg | Osmolarity ([2]; ~50 mM Tromethamine/HCl, target pH 7.4, t48 h): 186 mOsm/Kg | Osmolarity ([2]; ~50 mM Tromethamine/HCl, target pH 8.5, t2 h): 242 mOsm/Kg | Osmolarity ([2]; ~50 mM Tromethamine/HCl, target pH 8.5, t24 h): 239 mOsm/Kg | Osmolarity ([2]; ~50 mM Tromethamine/HCl, target pH 8.5, t48 h): 258 mOsm/Kg | pH variability [3]: up to 0.3 pH units
Compound: NS(=O)(=O)c1cc(C(=O)O)c(NCc2ccco2)cc1Cl [furosemide, 4-chloro-2-(furan-2-ylmethylamino)-5-sulfamoyl-benzoic acid]
